For this test, the target named is T1, RIPK2 enzyme (Homo sapiens, UniProt O43353).
T1 construct: purchased Carna 09-128
The test can be described thus: RIPK2 inhibition (ADP-Glo Kinase Assay). The format is biochemical. Conditions: RIPK2 5 nM, ATP 150 μM, MBP substrate, read-out: RIPK2 IC50. The gist of the method: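 Human RIPK2 (5 nM) preincubated with compound 30 min at room temperature in 50 mM HEPES pH 7.5, 10 mM MgCl2, 2 mM DTT, 1 mM EGTA, 0.01% Brij-35, 0.05% BSA; native swine MBP as substrate. ADP formed quantified by ADP-Glo luminescence; percent inhibition relative to DMSO and no-enzyme controls.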

pIC50: −log10 of the molar value. A value given as a limit tells only on which side of the number the result lay.

22 molecules from US12624018B1, “Inhibitors of RIPK2 and medical uses thereof” (Odyssey Therapeutics, Inc., priority 2022, dated 2026) can be followed below.

T1 sequence (O43353 1-299 limits assumed): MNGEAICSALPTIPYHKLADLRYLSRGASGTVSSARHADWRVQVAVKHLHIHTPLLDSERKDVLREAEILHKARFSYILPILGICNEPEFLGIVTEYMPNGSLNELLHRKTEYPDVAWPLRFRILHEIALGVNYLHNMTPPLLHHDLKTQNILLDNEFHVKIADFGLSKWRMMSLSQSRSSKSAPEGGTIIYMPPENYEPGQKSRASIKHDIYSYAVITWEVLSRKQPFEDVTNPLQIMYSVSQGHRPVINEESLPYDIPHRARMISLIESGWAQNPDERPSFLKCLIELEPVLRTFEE

For `CC(C)(C)n1cc(NC(=O)Cc2ccc(Oc3ccnc4ccc(OC5CCNCC5)cc34)c(F)c2)cn1` [Compound 161, N-(1-(tert-butyl)-1H-pyrazol-4-yl)-2-(3-fluoro-4-((6-(piperidin-4-yloxy)quinolin-4-yl)oxy)phenyl) acetamide], the pIC50 is more than 8.60.

In the case of `CN1CCC(Oc2ccc3nccc(Oc4ccc(CC(=O)Nc5cnn(C(C)(C)C)c5)cc4F)c3c2)CC1` [Compound 162, N-(1-(tert-butyl)-1H-pyrazol-4-yl)-2-(3-fluoro-4-((6-((1-methyl-piperidin-4-yl)oxy)quinolin-4-yl)oxy)phenyl) acetamide], the pIC50 was more than 8.60. For `CC(C)(C)n1cc(NC(=O)Cc2ccc(Oc3ccnc4ccc(S(C)(=O)=O)cc34)c(F)c2)cn1` [Compound 163, N-(1-(tert-butyl)-1H-pyrazol-4-yl)-2-(3-fluoro-4-((6-(methylsulfonyl)quinolin-4-yl)oxy)phenyl)acetamide], the pIC50 was more than 8.60. Turning to `CCS(=O)(=O)c1ccc2nccc(Oc3ccc(CC(=O)Nc4cnn(C(C)(C)C)c4)cc3F)c2c1` [Compound 164, N-(1-(tert-butyl)-1H-pyrazol-4-yl)-2-(4-((6-(ethylsulfonyl)quinolin-4-yl)oxy)-3-fluorophenyl)acetamide], the pIC50 was more than 8.60. Next, `CC(C)(C)n1cc(NC(=O)Cc2ccc(Oc3ccnc4ccc(OC5CCNCC5)cc34)c(F)c2F)cn1` [Compound 165, N-(1-(tert-butyl)-1H-pyrazol-4-yl)-2-(2,3-difluoro-4-((6-(piperidin-4-yloxy)quinolin-4-yl)oxy)phenyl) acetamide]: more than 8.60; `CN1CCC(Oc2ccc3nccc(Oc4ccc(CC(=O)Nc5cnn(C(C)(C)C)c5)c(F)c4F)c3c2)CC1` [Compound 166, N-(1-(tert-butyl)-1H-pyrazol-4-yl)-2-(2,3-difluoro-4-((6-((1-methyl-piperidin-4-yl)oxy)quinolin-4-yl)oxy)phenyl) acetamide]: more than 8.60. For the molecule `CC(C)(C)n1cc(NC(=O)Cc2ccc(Oc3ccnc4ccc(S(C)(=O)=O)cc34)c(F)c2F)cn1` [Compound 167, N-(1-(tert-butyl)-1H-pyrazol-4-yl)-2-(2,3-difluoro-4-((6-(methylsulfonyl)quinolin-4-yl)oxy)phenyl)acetamide], the pIC50 was more than 8.60. Next, `CCS(=O)(=O)c1ccc2nccc(Oc3ccc(CC(=O)Nc4cnn(C(C)(C)C)c4)c(F)c3F)c2c1` [Compound 168, N-(1-(tert-butyl)-1H-pyrazol-4-yl)-2-(4-((6-(ethylsulfonyl)quinolin-4-yl)oxy)-2,3-difluorophenyl)acetamide]: more than 8.60; `CC(C)(C)n1cc(NC(=O)Cc2ccc(Oc3ncnc4ccc(OC5CCNCC5)cc34)c(F)c2F)cn1` [Compound 169, N-(1-(tert-butyl)-1H-pyrazol-4-yl)-2-(2,3-difluoro-4-((6-(piperidin-4-yloxy)quinazolin-4-yl)oxy)phenyl) acetamide]: more than 8.60; `CN1CCC(Oc2ccc3ncnc(Oc4ccc(CC(=O)Nc5cnn(C(C)(C)C)c5)c(F)c4F)c3c2)CC1` [Compound 170, N-(1-(tert-butyl)-1H-pyrazol-4-yl)-2-(2,3-difluoro-4-((6-((1-methyl-piperidin-4-yl)oxy)quinazolin-4-yl)oxy)phenyl) acetamide]: more than 8.60.

On to `CC(C)(C)n1cc(NC(=O)Cc2ccc(Oc3ccnc4ccc(OC5CCNCC5)cc34)c(Cl)c2)cn1` [Compound 171, N-(1-(tert-butyl)-1H-pyrazol-4-yl)-2-(3-chloro-4-((6-(piperidin-4-yloxy)quinolin-4-yl)oxy)phenyl) acetamide], for which the pIC50 is more than 8.60. Next, `CN1CCC(Oc2ccc3nccc(Oc4ccc(CC(=O)Nc5cnn(C(C)(C)C)c5)cc4Cl)c3c2)CC1` [Compound 172, N-(1-(tert-butyl)-1H-pyrazol-4-yl)-2-(3-chloro-4-((6-((1-methyl-piperidin-4-yl)oxy)quinolin-4-yl)oxy)phenyl) acetamide]: more than 8.60; `CCS(=O)(=O)c1ccc2nccc(Oc3ccc(CC(=O)Nc4cnn(C(C)(C)C)c4)c(F)c3C)c2c1` [Compound 173, N-(1-(tert-butyl)-1H-pyrazol-4-yl)-2-(4-((6-(ethylsulfonyl)quinolin-4-yl)oxy)-2-fluoro-3-methylphenyl)acetamide]: more than 8.60; `Cc1c(Oc2ccnc3ccc(S(C)(=O)=O)cc23)ccc(CC(=O)Nc2cc(C(C)(C)C)n[nH]2)c1F` [Compound 175, N-(5-(tert-butyl)-1H-pyrazol-3-yl)-2-(2-fluoro-3-methyl-4-((6-(methylsulfonyl)quinolin-4-yl)oxy)phenyl)acetamide]: more than 8.60. Under `Cc1cc(CC(=O)Nc2cnn(C(C)(C)C)c2)ccc1Oc1ncnc2ccc(OC3CCN(CCO)CC3)cc12` [Compound 176] stands 8.40. Under `COCCN1CCC(Oc2ccc3ncnc(Oc4ccc(CC(=O)Nc5cnn(C(C)(C)C)c5)cc4C)c3c2)CC1` [Compound 177, N-(1-(tert-butyl)-1H-pyrazol-4-yl)-2-(4-((6-((1-(2-methoxyethyl)piperidin-4-yl)oxy)quinazolin-4-yl)oxy)-3-methylphenyl) acetamide] stands more than 8.60; under `Cc1cc(CC(=O)Nc2cnn(C(C)(C)C)c2)ccc1Oc1ncnc2ccc(OC3CCN(CC(F)F)CC3)cc12` [Compound 178, N-(1-(tert-butyl)-1H-pyrazol-4-yl)-2-(4-((6-((1-(2,2-difluoroethyl)piperidin-4-yl)oxy)quinazolin-4-yl)oxy)-3-methylphenyl) acetamide], 8.30. For the molecule `CCP(=O)(CC)c1ccc2nccc(Oc3ccc(CC(=O)Nc4cnn(C(C)(C)C)c4)cc3C)c2c1` [Compound 180, N-(1-(tert-butyl)-1H-pyrazol-4-yl)-2-(4-((6-(diethylphosphoryl)quinolin-4-yl)oxy)-3-methylphenyl) acetamide], the pIC50 was more than 8.60. Next, `Cc1cc(CC(=O)Nc2cnn(C(C)(C)C)c2)ccc1Oc1ccnc2ccc(P3(=O)CCCC3)cc12` [Compound 181, N-(1-(tert-butyl)-1H-pyrazol-4-yl)-2-(3-methyl-4-((6-(1-oxidophospholan-1-yl)quinolin-4-yl)oxy)phenyl) acetamide]: more than 8.60.

In the case of `Cc1cc(CC(=O)Nc2noc(C(C)(C)C)n2)ccc1Oc1ncnc2ccc(OC3CCNCC3)cc12` [Compound 183, N-(5-(tert-butyl)-1,2,4-oxadiazol-3-yl)-2-(3-methyl-4-((6-(piperidin-4-yloxy)quinazolin-4-yl)oxy)phenyl) acetamide], the pIC50 was more than 8.60.

For `Cc1cc(CC(=O)Nc2noc(C(C)(C)C)n2)ccc1Oc1ncnc2ccc(OC3CCN(C)CC3)cc12` [Compound 184, N-(5-(tert-butyl)-1,2,4-oxadiazol-3-yl)-2-(3-methyl-4-((6-((1-methylpiperidin-4-yl)oxy)quinazolin-4-yl)oxy)phenyl) acetamide], the pIC50 was 8.52. Under `Cc1c(Oc2ncnc3ccc(OC4CCN(C)CC4)cc23)ccc(CC(=O)Nc2cc(C(C)(C)C)n[nH]2)c1F` [Compound 186, N-(5-(tert-butyl)-1H-pyrazol-3-yl)-2-(2-fluoro-3-methyl-4-((6-((1-methyl-piperidin-4-yl)oxy)quinazolin-4-yl)oxy)phenyl) acetamide] stands more than 8.60.
